Data published in patent US10351586B2, “Cytidine derivative dimers and applications thereof” (CHANGZHOU FANGYUAN PHARMACEUTICAL CO., LTD, priority 2014, dated 2019).
Marks after values point to notes of the source that are not given here.

Tests used:
[1] = Body weight / toxicity of a single intraperitoneal injection in HCT-116 colon tumor-bearing nude mice; details: D3 350 mg/kg, D4 300 mg/kg; for Average rate of weight change of the animals / Average weight of the animals: single IP injection (QD×1), D1 and D2 400 mg/kg; for Average weight of the animals: Mean±SEM
Description: Corresponding test substance was weighed and put into a 5 mL glass tube. The test substance was dissolved in ethanol under the stirring by a 5 mm magnetic stirrer. After a complete dissolution, Cremophor EL was added with continuous stirring. Immediately prior to the user of the test substance, the labeled amount of physiological saline was added and stirred.
Animal experiments were performed. The animals were female Balb/c nude mice at specific pathogen free (SPF) level and were supplied from Shanghai Sippr/BK Lab Animal Ltd. (Shanghai, China). […] These animals were at the age of about 7 weeks to about 9 weeks at the beginning of the experiments and had the weight of about 18 grams to about 22 grams at the beginning of the experiment. The animals had acclimatization duration of about 5 days to about 7 days. Animals were numbered using their tail number. The animal room was maintained at about 23±2° C., 40%-70% humidity, with alternating light and dark every 12 hours.
4.2 Animal inoculation and grouping were performed. Under aseptic conditions, each nude mice was injected with 0.1 mL cell suspension into the right hind leg subcutaneously (3×10^6 cell/mouse). When the size of the tumor grew to have a volume of about 60-150 mm^3, nude mice with a similar tumor size and a desirable shape (e.g., with substantially same shape such as a substantially spherical shape, without having irregular shapes or multiple tumors grouped together) were selected and grouped. In the experiment, there were six mice in each group.
The mice in control group were injected with a mixed solution including ethanol, Cremophor EL and normal saline at a ratio of 5:5:90.
4.4 Clinical symptoms were provided. All clinical symptoms of each animal were recorded at the beginning of the experiments and during the experiments. The observation was performed at the same time every day.
After administration of the test substance, when the weight reduction was >20%, when the animal was dying, or when the tumor volume exceeds about 2800 mm^3, the animal were euthanized by applying CO2. The tumor was separated and weighed, an autopsy was performed, and visual inspection was conducted and recorded on whether there were pathological changes in the organs.

[2] = test system: HCT-116 human colon cancer xenografts; assay: Tumor growth inhibition of HCT-116 human colon cancer xenografts in nude mice; type: in vivo, Balb/c nude mice; details: for Relative tumor proliferation rate (T/C %) / Relative tumor volume (RTV) / Tumor growth inhibition rate (TGI %) / Tumor volume of HCT-116 human colon cancer xenografts: single IP injection (QD×1), D1 and D2 400 mg/kg, D3 350 mg/kg, D4 300 mg/kg; for Tumor volume of HCT-116 human colon cancer xenografts: Mean±SEM
Description: 2. Preparation of the test substance was performed by dissolving the test substance using the following solvents:
3. Animal experiments were performed. […] Animals were numbered using their tail number.
4.1 Tumor cells were human HCT-116 colon cancer cells purchased from the Institute of Cell Biology, Chinese Academy of Sciences (Beijing, China). F-12 medium (containing 10% FBS) was used to culture cells in a carbon dioxide incubator at about 37° C., saturated humidity, under 5% CO2 and 95% air. Before inoculation, cells in logarithmic growth phase were collected. After digested by 0.25% trypsin, the cells were washed with PBS once. The cells were resuspended with serum-free medium and counted. Serum-free medium were used for cell resuspension, until the cell concentration was adjusted to about 3×10^7 cell/mL.
4.2 Animal inoculation and grouping were performed.
The diameters (D) of the tumor nodules were measured three times a week with a circle sizer ruler. In addition, the following formula was applied to calculate the volume of the tumor nodules (V): V=[…](D/2)^3 generally for a spherical shape. Evaluation indexes of antitumor activity were tumor growth inhibition rate TGI (%) and relative tumor proliferation rate T/C (%).
The calculation formula of TGI was: TGI (%)=(Vcontrol−VTreatment)/Vcontrol)×100%. The relative tumor volume (RTV) was calculated by: RTV=Vt/V0, where V0 is the tumor volume at the time of group administration, and Vt is the tumor volume at the time of measurement.
The mice were weighed 3 times every week.
4.5 Data and statistical analysis were provided.

[3] = D1 400 mg/kg Day 7, D2 400 mg/kg Day 9, D3 350 mg/kg Day 11, D4 300 mg/kg Day 11, single IP

## CCCCOC(=O)Nc1ccn([C@H]2O[C@@H](COC(=O)CCC(=O)OC[C@H]3O[C@@H](n4ccc(NC(=O)OCCCC)nc4=O)C(F)(F)[C@@H]3O)[C@H](O)C2(F)F)c(=O)n1 (stereo in doubt) [Compound D2, 1,5-di-[4-N-(n-butoxycarbonyl)-2′-deoxy-2′,2′-difluoro-cytidine]glutarate]
[1]; Day 0
  Average rate of weight change of the animals: 0.00%
  Average weight of the animals: 19.87 ± 0.25 g
[1]; Day 1
  Average rate of weight change of the animals: −0.08 ± 0.74%
  Average weight of the animals: 19.85 ± 0.28 g
[1]; Day 2
  Average rate of weight change of the animals: −8.54 ± 1.31 %
  Average weight of the animals: 18.17 ± 0.31 g
[1]; Day 4
  Average rate of weight change of the animals: −10.63 ± 2.13 %
  Average weight of the animals: 17.75 ± 0.44 g
[1]; Day 7
  Average rate of weight change of the animals: −6.98 ± 1.43%
  Average weight of the animals: 18.48 ± 0.40 g
[1]; Day 9
  Average rate of weight change of the animals: 0.21 ± 1.42%
  Average weight of the animals: 19.92 ± 0.45 g
[1]; Day 11
  Average rate of weight change of the animals: 2.72 ± 1.85%
  Average weight of the animals: 20.42 ± 0.53 g
[1]; Day 14
  Average rate of weight change of the animals: 4.87 ± 2.08 %
  Average weight of the animals: 20.85 ± 0.60 g
[1]; Day 16
  Average rate of weight change of the animals: 6.32 ± 1.65 %
  Average weight of the animals: 21.13 ± 0.51 g
[1]; Day 18
  Average rate of weight change of the animals: 8.83 ± 1.43 %
  Average weight of the animals: 21.63 ± 0.51 g
[1]; Day 21
  Average rate of weight change of the animals: 4.22 ± 1.23 %
  Average weight of the animals: 20.72 ± 0.46 g
[1]; Day 23
  Average rate of weight change of the animals: 3.66 ± 1.05 %
  Average weight of the animals: 20.60 ± 0.40 g
[1]; Day 25
  Average rate of weight change of the animals: 5.07 ± 1.44%
  Average weight of the animals: 20.88 ± 0.48 g
[1]; Day 28
  Average rate of weight change of the animals: 1.57 ± 1.50%
  Average weight of the animals: 20.18 ± 0.44 g
[1]; Day 30
  Average rate of weight change of the animals: 2.28 ± 1.75%
  Average weight of the animals: 20.33 ± 0.55 g
[1]; single IP injection, D2 400 mg/kg, judged from body weight versus control
  Toxicity in tumor-bearing mice (in words): no toxicity
[2]; [3]
  Relative tumor proliferation rate, minimum: 14.41%
  Tumor inhibition rate, maximum: 94.79%
[2]; Day 0
  Relative tumor proliferation rate (T/C %): 0.00%
  Relative tumor volume (RTV): 1.00
  Tumor growth inhibition rate (TGI %): 0.00%
  Tumor volume of HCT-116 human colon cancer xenografts: 53.09 ± 9.33** mm^3
[2]; Day 1
  Relative tumor proliferation rate (T/C %): 50.15%
  Relative tumor volume (RTV): 0.89 ± 0.10
  Tumor growth inhibition rate (TGI %): 71.87%
  Tumor volume of HCT-116 human colon cancer xenografts: 50.78 ± 14.16** mm^3
[2]; Day 2
  Relative tumor proliferation rate (T/C %): 40.78%
  Relative tumor volume (RTV): 0.95 ± 0.15
  Tumor growth inhibition rate (TGI %): 74.81%
  Tumor volume of HCT-116 human colon cancer xenografts: 55.89 ± 18.82** mm^3
[2]; Day 4
  Relative tumor proliferation rate (T/C %): 25.19%
  Relative tumor volume (RTV): 0.73 ± 0.19
  Tumor growth inhibition rate (TGI %): 84.53%
  Tumor volume of HCT-116 human colon cancer xenografts: 45.96 ± 20.25** mm^3
[2]; Day 7
  Relative tumor proliferation rate (T/C %): 16.63%
  Relative tumor volume (RTV): 0.52 ± 0.23
  Tumor growth inhibition rate (TGI %): 91.71%
  Tumor volume of HCT-116 human colon cancer xenografts: 35.87 ± 21.79** mm^3
[2]; Day 9
  Relative tumor proliferation rate (T/C %): 14.41%
  Relative tumor volume (RTV): 0.46 ± 0.17
  Tumor growth inhibition rate (TGI %): 94.79%
  Tumor volume of HCT-116 human colon cancer xenografts: 30.75 ± 16.74** mm^3
[2]; Day 11
  Relative tumor proliferation rate (T/C %): 16.77%
  Relative tumor volume (RTV): 0.87 ± 0.35
  Tumor growth inhibition rate (TGI %): 94.13%
  Tumor volume of HCT-116 human colon cancer xenografts: 57.29 ± 33.0** mm^3
[2]; Day 14
  Relative tumor proliferation rate (T/C %): 18.33%
  Relative tumor volume (RTV): 1.80 ± 0.69
  Tumor growth inhibition rate (TGI %): 91.88%
  Tumor volume of HCT-116 human colon cancer xenografts: 116.87 ± 66.85** mm^3
[2]; Day 16
  Relative tumor proliferation rate (T/C %): 21.64%
  Relative tumor volume (RTV): 2.66 ± 0.88
  Tumor growth inhibition rate (TGI %): 90.63%
  Tumor volume of HCT-116 human colon cancer xenografts: 169.73 ± 88.15** mm^3
[2]; Day 18
  Relative tumor proliferation rate (T/C %): 21.99%
  Relative tumor volume (RTV): 4.20 ± 1.02
  Tumor growth inhibition rate (TGI %): 86.88%
  Tumor volume of HCT-116 human colon cancer xenografts: 262.10 ± 111.14** mm^3
[2]; Day 21
  Relative tumor proliferation rate (T/C %): 34.57%
  Relative tumor volume (RTV): 8.09 ± 1.52
  Tumor growth inhibition rate (TGI %): 79.99%
  Tumor volume of HCT-116 human colon cancer xenografts: 489.13 ± 174.91 mm^3
[2]; Day 23
  Relative tumor proliferation rate (T/C %): 42.87%
  Relative tumor volume (RTV): 8.48 ± 1.37
  Tumor growth inhibition rate (TGI %): 78.74%
  Tumor volume of HCT-116 human colon cancer xenografts: 501.98 ± 170.25 mm^3
[2]; Day 25
  Relative tumor proliferation rate (T/C %): 44.51%
  Relative tumor volume (RTV): 9.62 ± 1.48
  Tumor growth inhibition rate (TGI %): 77.96%
  Tumor volume of HCT-116 human colon cancer xenografts: 569.05 ± 189.18 mm^3
[2]; Day 28
  Relative tumor proliferation rate (T/C %): 56.94%
  Relative tumor volume (RTV): 12.03 ± 1.50
  Tumor growth inhibition rate (TGI %): 74.35%
  Tumor volume of HCT-116 human colon cancer xenografts: 689.78 ± 203.52 mm^3
[2]; Day 30
  Relative tumor proliferation rate (T/C %): 63.87%
  Relative tumor volume (RTV): 15.85 ± 1.92
  Tumor growth inhibition rate (TGI %): 67.91%
  Tumor volume of HCT-116 human colon cancer xenografts: 900.52 ± 250.44 mm^3
[2]; single IP injection, 300-400 mg/kg
  Inhibition of growth of HCT-116 human colon cancer xenografts (in words): higher tumor inhibition rates
